Assay results as given in patent US8663620B2, “Murgantiol as a stink bug synergistic attractant for use outdoors” (Sterling International Inc., priority 2011, dated 2014).
Entries after “also recorded” stand apart in the source; their conditions may differ. Read-outs that look alike come from different tables or passages of the source.

Tests used:
[1] = tested on: A. hilare; details: Aldrich et al. 2007; Khrimian 2005; cited from earlier work
[2] = tested on: BMSB; details: cited from earlier work
[3] = tested on: BMSB adults; details: both sexes of adults, overwintering and transition periods; cited from earlier work
[4] = tested on: Harlequin bugs; details: insect-produced and synthetic murgantiol; laboratory; cited from earlier work
[5] = tested on: brown marmorated stink bug (BMSB); assay: Field trapping Experiment 1 (Example 1): doses of racemic murgantiol vs standard attractants in Rescue! Stink Bug Traps; assay type: in vivo, Halyomorpha halys; details: for attraction of BMSB adults (mean numbers captured in baited traps): Pittsburgh, Pa., 14 days in early September, vs blank control, Duncan's test α=0.05; for attraction of BMSB adults (mean numbers captured in baited traps) / dose-response of trap catches: FIG. 2; for dose-response of trap catches: racemic murgantiol 10, 20, 40, 80 mg
Description: (§1) Two field trapping experiments were carried out from early to late September in home gardens/yards in Pittsburgh, Pa. In order to test the potential activity of the Harlequin bug pheromone, murgantiol, as a BMSB outdoor attractant or outdoor synergistic attractant to other known stink bug attractants, commercially available Rescue!® Stink Bug Traps (described in U.S. Pat. No. D645,534; U.S. Pat. No. D645,535; and U.S. patent application Ser. No. 13/331,394, filed Dec. 20, 2011) were used. Traps baited with different tested compounds or combinations were set up in lines, 1-1.5 m above the ground on either tree branches or fences ca. 3-5 m apart between each trap within a set, and at least 50 m between sets. For each trapping experiment, five sets of traps (i.e., five physical replicates of each treatment) were deployed with their initial trap positions within each set being randomized. To minimize positional effects and obtain more replications, stink bug collections and trap re-randomizations were carried out when ≧20 stink bugs were caught in the best traps. Each replicate lasted one to several days depending on stink bug activity. Captured stink bugs were removed from the traps and kept in plastic (polyethylene) zip-bags before returning to the laboratory for recording of the species, gender, and development status (nymphs, adult males/females), and catch. Murgantiol and the known stink bug attractants were released from dispensers [for example, 4 mil polyethylene bags (2.3×5.5 cm) or dispensers described in U.S. patent application Ser. No. 13/206,244, filed Aug. 9, 2011, incorporated herein by reference in its entirety]. Experiment 1 (Example 1) tested different doses of racemic murgantiol (MGT) in comparison with the known standard stink bug attractants [M246DT/M24DD], and the blank control. Trap catch data were converted to proportion (P) of total captured bugs within each replicate. The data were then transformed by arcsin (P)^1/2 to meet the assumptions of normality and homogeneity of variances for ANOVA (analysis of variance). Means were compared by ANOVA followed by the Duncan's multiple range test at α=0.05.

[6] = tested on: Euschistus spp.; assay: Outdoor trapping with Rescue! Stink Bug Traps, synergistic attraction; assay type: in vivo; details: outdoors
[7] = tested on: brown marmorated stink bug (BMSB); assay: Field trapping Experiment 2 (Example 2): attractant formulations with and without racemic murgantiol in Rescue! Stink Bug Traps; assay type: in vivo, Halyomorpha halys; details: outdoors, September; FIG. 3
Description: as §1, with “Murgantiol and the known stink bug attractants were released from dispensers [for example, 4 mil polyethylene bags (2.3×5.5 cm) or dispensers described in U.S. patent application Ser. No. 13/206,244, filed Aug. 9, 2011, incorporated herein by reference in its entirety]. Experiment 1 (Example 1) tested different doses of racemic murgantiol (MGT) in comparison with the known standard stink bug attractants [M246DT/M24DD], and the blank control. Trap catch data were converted to proportion (P) of total captured bugs within each replicate. The data were then transformed by arcsin (P)^1/2 to meet the assumptions of normality and homogeneity of variances for ANOVA (analysis of variance). Means were compared by ANOVA followed by the Duncan's multiple range test at α=0.05.” left out

[8] = tested on: Euschistus spp.; details: seven Euschistus spp.; Aldrich et al. 1991; cited from earlier work

## CCC\C=C/C=C/C=C/C(=O)OC [M246DT, methyl (2E,4E,6Z)-decatrienoate]
[1]
  field attraction of A. hilare: field attractant
[2]; adults (males and females) and nymphs, Aldrich et al. 2007, Khrimian 2005
  field attraction of BMSB: field attractant for both adults (males and females) and nymphs
[2]; late spring and early summer, dispersal (overwintered) adults
  attraction of BMSB: only weakly active
[2]; mid-summer and early fall
  attraction of BMSB: strongly attractive to both nymphs and adults

## CC(CCC1OC1(C)C)C1C=CC(C)(O)CC1 (racemic) [murgantiol, 4-[3-(3,3-dimethyloxiran-2-yl)-1-methylpropyl]-1-methylcyclohex-2-en-1-ol]
[3]
  indoor attraction of BMSB: indoor attractant
[4]
  attraction of Harlequin bugs: attracted sexually mature Harlequin bugs of both sexes
[5]; outdoors
  attraction of BMSB adults (mean numbers captured in baited traps): active as an outdoor attractant; also recorded: comparable, if not more effective in attracting insects; also recorded: outdoor attractant for BMSBs in any dose amount
[5]; outdoors, listed as MGT-A
  attraction of BMSB adults (mean numbers captured in baited traps): strong attraction to BMSBs at levels similar or even higher than the known standard stink bug attractants
[5]; outdoors, listed as MGT-B
  attraction of BMSB adults (mean numbers captured in baited traps): strong attraction to BMSBs at levels similar or even higher than the known standard stink bug attractants
[5]; outdoors, listed as MGT-C
  attraction of BMSB adults (mean numbers captured in baited traps): strong attraction to BMSBs at levels similar or even higher than the known standard stink bug attractants
[5]; outdoors, listed as MGT-D
  attraction of BMSB adults (mean numbers captured in baited traps): strong attraction to BMSBs at levels similar or even higher than the known standard stink bug attractants
[5]; outdoors, September, nymphs only 5% of total catches
  sexes and stages attracted and captured: Both sexes of adults (ca. 1:1) and nymphs were attracted and captured
[5]
  dose-response of trap catches: no significant dose-response effects
[5]; listed as MGT-A
  dose-response of trap catches: as effective as the highest dose
[6]
  synergistic attraction together with known stink bug attractants such as M246DT and M24DD: synergistically attract
[7]
  effect of adding murgantiol to M246DT/M24DD attractants on BMSB trap catches (synergism): synergistically attract; also recorded: significant increases in attraction; also recorded: strong synergistic effects

## CCCCC/C=C\C=C\C(=O)OC [M24DD, methyl (2E,4Z)-decadienoate]
[8]
  field attraction of Euschistus spp.: aggregation pheromone compound or field attractant
